How the values were obtained:
h-5-HT6 receptor = biological target: T1, h-5-HT6 receptor (Homo sapiens, UniProt P50406); experiment: Human 5-HT6 receptor radioligand binding assay ([3H]-LSD, HEK293 membranes); settings: HEK293 membranes, 1 nM [3H]-lysergic acid diethylamide, 3.5 hours at room temperature; read-out: Ki (μM), 5-HT6 Agonist Site Radioligand Binding
T1 construct: expressed in transfected cells; host or cells: HEK293 cells (membrane preparation)

[1] = biological target: T2, human serotonin 5-HT2c receptor (Homo sapiens, UniProt P28335); experiment: Human 5-HT2C receptor radioligand binding assay (agonist site, [125I](±)DOI); settings: membranes of transfected CHO cells, 0.2 nM [125I](±)DOI, 15 minutes at 37° C.
T2 construct: expressed in transfected cells; host or cells: CHO cells (membrane homogenate)
T2 sequence (P28335 33-458): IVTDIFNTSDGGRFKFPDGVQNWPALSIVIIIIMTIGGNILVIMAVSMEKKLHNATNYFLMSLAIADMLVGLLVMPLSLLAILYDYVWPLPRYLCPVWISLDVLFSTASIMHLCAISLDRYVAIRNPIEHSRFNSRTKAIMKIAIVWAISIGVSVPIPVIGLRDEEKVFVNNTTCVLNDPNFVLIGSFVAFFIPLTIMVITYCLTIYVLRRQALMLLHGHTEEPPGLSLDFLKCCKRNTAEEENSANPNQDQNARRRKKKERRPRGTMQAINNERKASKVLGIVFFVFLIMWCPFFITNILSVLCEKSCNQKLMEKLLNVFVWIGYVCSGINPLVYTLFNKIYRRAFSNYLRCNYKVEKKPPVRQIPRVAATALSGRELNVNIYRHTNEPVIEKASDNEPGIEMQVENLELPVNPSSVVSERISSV
How it was run: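 Affinity for the agonist site measured by radioligand binding in transfected CHO cells expressing the human receptor, using [125I](±)DOI.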

T1 sequence (P50406 whole entry): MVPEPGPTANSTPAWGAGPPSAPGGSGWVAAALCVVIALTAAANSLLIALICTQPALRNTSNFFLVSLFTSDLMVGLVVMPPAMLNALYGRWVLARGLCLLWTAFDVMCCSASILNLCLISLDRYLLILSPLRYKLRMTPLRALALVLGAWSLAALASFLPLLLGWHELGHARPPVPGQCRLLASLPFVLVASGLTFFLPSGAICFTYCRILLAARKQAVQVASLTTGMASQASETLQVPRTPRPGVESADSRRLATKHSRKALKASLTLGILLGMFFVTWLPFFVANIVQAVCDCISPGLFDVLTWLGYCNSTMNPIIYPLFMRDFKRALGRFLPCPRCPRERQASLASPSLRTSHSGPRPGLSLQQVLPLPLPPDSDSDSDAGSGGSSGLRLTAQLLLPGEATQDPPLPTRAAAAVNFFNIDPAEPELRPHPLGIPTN

Ki (h-5-HT6 receptor): 0.045 µM | Ki [1]: 27 µM
Compound: O=C1NCC2CNCCN2c2ccc(NS(=O)(=O)c3ccccc3)cc21 (centres unmarked) [Example 48, N-(7-oxo-1,2,3,4,4a,5,6,7-octahydropyrazino[1,2-a][1,4]benzodiazepin-9-yl)benzenesulfonamide]

Source: patent publication US8546377B2 (AbbVie Inc., priority 2009, dated 2013)
